Test results as given in publication PMC4370873, “The RNA Template Channel of the RNA-Dependent RNA Polymerase as a Target for Development of Antiviral Therapy of Multiple Genera within a Virus Family” (PLoS Pathogens, 2015).

Target: T1, EMCV 3Dpol (Mengo virus, UniProt P12296)
T1 construct: mature 3Dpol cut from polyprotein (1834 to 2293, 460 residues); cleavable His6-thioredoxin tag (pETG20A) removed; expressed in E. coli Rosetta (DE3) pLysS
Assay: [3H]UTP incorporation on poly(rA)/dT15, filter binding
Type: biochemical

T1 sequence (P12296 1834-2293): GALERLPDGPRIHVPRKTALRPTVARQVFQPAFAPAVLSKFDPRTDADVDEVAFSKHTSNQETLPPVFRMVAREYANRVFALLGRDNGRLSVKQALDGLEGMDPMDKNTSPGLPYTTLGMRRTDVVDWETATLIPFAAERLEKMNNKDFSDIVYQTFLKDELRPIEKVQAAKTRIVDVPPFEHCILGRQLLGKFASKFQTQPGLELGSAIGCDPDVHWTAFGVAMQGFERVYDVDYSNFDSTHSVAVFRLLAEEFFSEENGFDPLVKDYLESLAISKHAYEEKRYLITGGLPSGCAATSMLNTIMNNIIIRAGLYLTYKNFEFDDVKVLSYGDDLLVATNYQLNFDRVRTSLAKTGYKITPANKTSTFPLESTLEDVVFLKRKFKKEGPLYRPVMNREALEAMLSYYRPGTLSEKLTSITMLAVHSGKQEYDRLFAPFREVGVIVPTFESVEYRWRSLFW

Work on N#Cc1cc([N+](=O)[O-])ccc1Oc1ccc(Cl)cc1Oc1ccc([N+](=O)[O-])cc1C#N [GPC-N114, 2,2'-[(4-chloro-1,2-phenylene)bis(oxy)]bis(5-nitro-benzonitrile)] yielded a Ki of 1300 nM.
